Measured values as given in patent US20080254993A1, “Use of abscisic acid analogs to enhance growth control” (priority 2007, published 2008).

How the values were obtained:
creeping bentgrass [1] = assay: Golf course green field study on creeping bentgrass with PBI-702: turfgrass height, soil moisture, turf quality (Example 3); format: in vivo, Penncross creeping bentgrass; conditions: for Soil moisture / Turfgrass height / Turf quality: 25 ppm trinexapac-ethyl alone; for Turf quality: visual 0-9 scale, 9 best
Description: (§1) Field studies were conducted at the nursery green or the practice green at Countryside golf course (Mundelein, Ill.). Both greens were sand based and growing Penncross creeping bentgrass. Grass was managed with typical Illinois golf course management practices.
Chemical solutions were prepared with distilled water. Tween 20 (0.05% v/v) was used as the surfactant when necessary. Trinexapac-ethyl (commercial product Primo Maxx, 11.3% active ingredient) was purchased from Syngenta Crop Protection Inc. (Greensboro, N.C.). ABA analogs, 8′ acetylene-ABA, acid (PBI-524), 8′ acetylene-ABA, ester (PBI-429), 8′ cyclopropane ester (PBI-696), or Tetralone, first carbon tail acetylene, ester (PBI-702), were obtained from Plant Biotechnology Institute, National Research Council of Canada (Saskatoon, Saskatchewan, Canada).
Chemical solutions were foliar applied to the turfgrass canopy at the rate of 4-gallons/1000 square foot (or 0.163 L/m^−2) immediately after finishing the preparation of solutions. After treatment, turfgrasses were arranged in a randomized complete block experimental design. Turfgrass quality, turfgrass height or clip fresh weight was measured on assigned dates. Turfgrass quality was visually rated on a 0-9 scale based on the color, uniformity, and density of the grass with 0 as the worst and 9 as the best. Turfgrass height was measured as the distance between canopy surface and soil. Clippings were collected form each plot; all plots were cut to a uniform height.
All experiments were randomized complete block experimental design. Data were analyzed by analysis of variance. Duncan's new multiple range tests at α=0.05 were used for mean separations.
Trinexapac-ethyl (25 ppm) or PBI-702 (50 ppm) were one time foliar applied alone or in combination to creeping bentgrass in the golf course green to investigate their effect on turfgrass quality, growth inhibition and soil moisture.

creeping bentgrass [2] = assay: Golf course green field study on creeping bentgrass with PBI-696: growth rate, turfgrass quality (Example 4); format: in vivo, Penncross creeping bentgrass; conditions: 4 days after treatment, trinexapac-ethyl (25 ppm) alone
Description: as §1
Chemical solutions were prepared with distilled water. Tween 20 (0.05% v/v) was used as the surfactant when necessary. Trinexapac-ethyl (commercial product Primo Maxx, 11.3% active ingredient) was purchased from Syngenta Crop Protection Inc. (Greensboro, N.C.). […]
Chemical solutions were foliar applied to the turfgrass canopy at the rate of 4-gallons/1000 square foot (or 0.163 L/m^−2) immediately after finishing the preparation of solutions. […] Turfgrass quality, turfgrass height or clip fresh weight was measured on assigned dates. […] Turfgrass height was measured as the distance between canopy surface and soil. […]
All experiments were randomized complete block experimental design. Data were analyzed by analysis of variance. […]
Trinexapac-ethyl (25 ppm) and PBI-696 (5 or 50 ppm) were one time foliar applied in combination to creeping bentgrass in the golf course green. Turfgrass quality and growth rate were measured 4 days after treatment.

tomato = assay: Tomato plant height, growth rate and leaf number, greenhouse (Example 5); format: in vivo, Tomato (variety: Rutgers); conditions: for Tomato leaf number (in words) / Tomato growth rate in terms of plant height (in words) / Tomato plant height (in words): PBI-429 25-200 ppm, trinexapac-ethyl 250-2000 ppm, alone or combined
Text: The effect of ABA analog (PBI-429) and trinexapac-ethyl combinations on transpiration and growth inhibition of dicotyledonous (tomato) was also examined in the greenhouse condition. Tomato (variety: Rutgers) seeds were sown in 18-cell flat filled with Promix PGX (available from Premier Horticulture Inc. Quakertown, Pa.) and grown for 3 weeks to allow for germination and initial growth. Plants were then transplanted into pots (18 cm in diameter and 18 cm in height), filled with Promix BX (available from Premier Horticulture Inc. Quakertown, Pa.), and grown for one week before the chemical treatment. Plants received daily irrigation and weekly fertilizer (1 g/L all purpose fertilizer 20-20-20, available from The Scotts Company, Marysville, Ohio). During the chemical treatment, a 24 mL (4 mL/plant) solution was foliar sprayed on the tomato canopy. Leaf transpiration rates were measured using a LI-1600 Steady State Porometer (LI-Cor, Lincoln, Nebr.) at 3, 5, 7, 10, and 14 days after treatment. The leaf transpiration rate was normalized to the percentage of control plant to minimize the experimental errors caused by environmental factors. Plant height was measured at 0, 3, 5, 7, 10 and 14 days after treatment. The growth rate was calculated based on the changes of plant height in certain intervals. The plants were harvested and the leaf number was counted at 14 days after treatment.

[3] = 250 ppm trinexapac-ethyl, 3 days after treatment
[4] = 250 ppm trinexapac-ethyl, 5 days after treatment
[5] = 250 ppm trinexapac-ethyl, 7 days after treatment
[6] = 250 ppm trinexapac-ethyl, 10 days after treatment
[7] = 250 ppm trinexapac-ethyl, 14 days after treatment
[8] = 500 ppm trinexapac-ethyl, 3 days after treatment
[9] = 500 ppm trinexapac-ethyl, 5 days after treatment
[10] = 500 ppm trinexapac-ethyl, 7 days after treatment
[11] = 500 ppm trinexapac-ethyl, 10 days after treatment
[12] = 500 ppm trinexapac-ethyl, 14 days after treatment
[13] = 1000 ppm trinexapac-ethyl, 3 days after treatment
[14] = 1000 ppm trinexapac-ethyl, 5 days after treatment
[15] = 1000 ppm trinexapac-ethyl, 7 days after treatment
[16] = 1000 ppm trinexapac-ethyl, 10 days after treatment
[17] = 1000 ppm trinexapac-ethyl, 14 days after treatment
[18] = 2000 ppm trinexapac-ethyl, 3 days after treatment
[19] = 2000 ppm trinexapac-ethyl, 5 days after treatment
[20] = 2000 ppm trinexapac-ethyl, 7 days after treatment
[21] = 2000 ppm trinexapac-ethyl, 10 days after treatment
[22] = 2000 ppm trinexapac-ethyl, 14 days after treatment
[23] = 25 ppm PBI-429, 3 days after treatment
[24] = 25 ppm PBI-429, 5 days after treatment
[25] = 25 ppm PBI-429, 7 days after treatment
[26] = 25 ppm PBI-429, 10 days after treatment
[27] = 25 ppm PBI-429, 14 days after treatment
[28] = 50 ppm PBI-429, 3 days after treatment
[29] = 50 ppm PBI-429, 5 days after treatment
[30] = 50 ppm PBI-429, 7 days after treatment
[31] = 50 ppm PBI-429, 10 days after treatment
[32] = 50 ppm PBI-429, 14 days after treatment
[33] = 100 ppm PBI-429, 3 days after treatment
[34] = 100 ppm PBI-429, 5 days after treatment
[35] = 100 ppm PBI-429, 7 days after treatment
[36] = 100 ppm PBI-429, 10 days after treatment
[37] = 100 ppm PBI-429, 14 days after treatment
[38] = 200 ppm PBI-429, 3 days after treatment
[39] = 200 ppm PBI-429, 5 days after treatment
[40] = 200 ppm PBI-429, 7 days after treatment
[41] = 200 ppm PBI-429, 10 days after treatment
[42] = 200 ppm PBI-429, 14 days after treatment

## CCOC(=O)C1CC(=O)C(=C(O)C2CC2)C(=O)C1 (stereo not drawn) [trinexapac-ethyl, reference compound]
Creeping bentgrass [1]; 4 days after treatment
  Soil moisture: 11.2%
  Turfgrass height: 7.3 mm
Creeping bentgrass [1]; 4 days after treatment, trinexapac-ethyl 25 ppm, PBI-702 50 ppm, alone or combined
  Reducing growth or maintaining soil moisture (in words): ineffective at reducing growth or maintaining soil moisture
Creeping bentgrass [1]; 7 days after treatment
  Soil moisture: 12.7%
  Turfgrass height: 6.5 mm
  Turf quality: 7.3
Creeping bentgrass [1]; 7 days after treatment, trinexapac-ethyl 25 ppm, PBI-702 50 ppm, alone or combined
  Reducing growth (in words): effective at reducing growth
Creeping bentgrass [1]; 38 days after treatment
  Soil moisture: 12.4%
  Turfgrass height: 6.0 mm
  Turf quality: 7.6
Creeping bentgrass [2]
  Growth rate: 549 mg dry weight m^−2 day^−1
Creeping bentgrass [2]; visual 0-9 scale, 9 best
  Turfgrass quality: 8.0
tomato; 250 ppm trinexapac-ethyl, 0 days after treatment
  Plant height: 6.4 cm
tomato; [3]
  Growth rate: 1.2 cm/day
  Plant height: 9.9 cm
tomato; [4]
  Growth rate: 1.0 cm/day
  Plant height: 11.9 cm
tomato; [5]
  Growth rate: 1.6 cm/day
  Plant height: 15.1 cm
tomato; [6]
  Growth rate: 1.5 cm/day
  Plant height: 19.6 cm
tomato; [7]
  Growth rate: 1.8 cm/day
  Leaf number: 11.0
  Plant height: 26.9 cm
tomato; 500 ppm trinexapac-ethyl, 0 days after treatment
  Plant height: 6.5 cm
tomato; [8]
  Growth rate: 0.9 cm/day
  Plant height: 9.3 cm
tomato; [9]
  Growth rate: 0.8 cm/day
  Plant height: 10.9 cm
tomato; [10]
  Growth rate: 1.2 cm/day
  Plant height: 13.3 cm
tomato; [11]
  Growth rate: 1.4 cm/day
  Plant height: 17.4 cm
tomato; [12]
  Growth rate: 1.8 cm/day
  Leaf number: 11.0
  Plant height: 24.4 cm
tomato; 1000 ppm trinexapac-ethyl, 0 days after treatment
  Plant height: 6.5 cm
tomato; [13]
  Growth rate: 0.7 cm/day
  Plant height: 8.9 cm
tomato; [14]
  Growth rate: 0.7 cm/day
  Plant height: 10.3 cm
tomato; [15]
  Growth rate: 1.0 cm/day
  Plant height: 12.3 cm
tomato; [16]
  Growth rate: 1.2 cm/day
  Plant height: 15.8 cm
tomato; [17]
  Growth rate: 1.8 cm/day
  Leaf number: 11.0
  Plant height: 22.8 cm
tomato; 2000 ppm trinexapac-ethyl, 0 days after treatment
  Plant height: 6.7 cm
tomato; [18]
  Growth rate: 0.6 cm/day
  Plant height: 7.9 cm
tomato; [19]
  Growth rate: 0.6 cm/day
  Plant height: 9.1 cm
tomato; [20]
  Growth rate: 0.8 cm/day
  Plant height: 10.7 cm
tomato; [21]
  Growth rate: 1.0 cm/day
  Plant height: 13.6 cm
tomato; [22]
  Growth rate: 1.2 cm/day
  Leaf number: 10.8
  Plant height: 18.3 cm
tomato; 14 days after treatment
  Tomato leaf number (in words): did not change the tomato leaf number
tomato
  Tomato growth rate in terms of plant height (in words): inhibited growth rate
  Tomato plant height (in words): decreased tomato plant height

## C#CC1(C)CC(=O)C=C(C)C1(O)/C=C/C(C)=C\C(=O)OC (stereo not drawn) [PBI-429, 8′ acetylene-ABA, ester]
tomato; 25 ppm PBI-429, 0 days after treatment
  Plant height: 6.3 cm
tomato; [23]
  Growth rate: 0.8 cm/day
  Plant height: 8.6 cm
tomato; [24]
  Growth rate: 0.9 cm/day
  Plant height: 10.4 cm
tomato; [25]
  Growth rate: 1.2 cm/day
  Plant height: 12.8 cm
tomato; [26]
  Growth rate: 1.1 cm/day
  Plant height: 16.0 cm
tomato; [27]
  Growth rate: 1.2 cm/day
  Leaf number: 11.0
  Plant height: 20.7 cm
tomato; 50 ppm PBI-429, 0 days after treatment
  Plant height: 6.3 cm
tomato; [28]
  Growth rate: 0.6 cm/day
  Plant height: 8.8 cm
tomato; [29]
  Growth rate: 0.6 cm/day
  Plant height: 10.0 cm
tomato; [30]
  Growth rate: 0.8 cm/day
  Plant height: 11.6 cm
tomato; [31]
  Growth rate: 0.8 cm/day
  Plant height: 13.9 cm
tomato; [32]
  Growth rate: 1.1 cm/day
  Leaf number: 11.0
  Plant height: 18.2 cm
tomato; 100 ppm PBI-429, 0 days after treatment
  Plant height: 6.3 cm
tomato; [33]
  Growth rate: 0.6 cm/day
  Plant height: 8.4 cm
tomato; [34]
  Growth rate: 0.5 cm/day
  Plant height: 9.4 cm
tomato; [35]
  Growth rate: 0.7 cm/day
  Plant height: 10.8 cm
tomato; [36]
  Growth rate: 0.7 cm/day
  Plant height: 12.8 cm
tomato; [37]
  Growth rate: 0.9 cm/day
  Leaf number: 10.8
  Plant height: 16.2 cm
tomato; 200 ppm PBI-429, 0 days after treatment
  Plant height: 6.4 cm
tomato; [38]
  Growth rate: 0.5 cm/day
  Plant height: 7.9 cm
tomato; [39]
  Growth rate: 0.4 cm/day
  Plant height: 8.7 cm
tomato; [40]
  Growth rate: 0.5 cm/day
  Plant height: 9.6 cm
tomato; [41]
  Growth rate: 0.4 cm/day
  Plant height: 10.9 cm
tomato; [42]
  Growth rate: 0.7 cm/day
  Leaf number: 10.5
  Plant height: 13.8 cm
tomato; 14 days after treatment
  Tomato leaf number (in words): only significantly reduced leaf number at the highest rate
tomato
  Tomato growth rate in terms of plant height (in words): decreased tomato growth rate
  Tomato plant height (in words): decreased tomato plant height
